In assay [1] the test system is Campylobacter jejuni. Nature of the assay: Antimicrobial activity against Campylobacter jejuni. Type of assay: functional.
Assay [2] has as its system Clostridioides difficile. The assay can be described thus: Antimicrobial activity against Clostridium difficile. Type of assay: functional.
Assay [3] relates to Helicobacter pylori. The assay can be described thus: Inhibition of Helicobacter pyroli PFOR expressed in Escherichia coli at 40 uM.
For assay [4], the system named is Helicobacter pylori. Nature of the assay: Antimicrobial activity against Helicobacter pylori. Type of assay: functional.

What is called MIC is the lowest concentration that inhibits growth of the organism. The low end stands for inhibition by little substance, the high end for a need for much substance. By inhibition is commonly meant the drop in the measured response relative to a control, in per cent. Read a high inhibition as strong suppression.

Converted amounts (≈) assume the structure as drawn.

Consider `CCCCCC(=O)Nc1sc([N+](=O)[O-])cc1[N+](=O)[O-]`, for which the MIC is 27.8 µM (≈ 7.99 µg/mL) in assay [1], 0.9 µM (≈ 0.259 µg/mL) in assay [2] and 2.6 µM (≈ 0.747 µg/mL) in assay [4]. Besides, in assay [3], the inhibition was 80%.

As for `CCCCCC(=O)Nc1ncc([N+](=O)[O-])s1`, the MIC was determined as 8.2 µM (≈ 1.99 µg/mL) in assay [1], 2.1 µM (≈ 0.511 µg/mL) in assay [2] and 0.5 µM (≈ 0.122 µg/mL) in assay [4]. This compound showed an inhibition in assay [3] of 70%.

Regarding `O=C(Nc1sc([N+](=O)[O-])cc1[N+](=O)[O-])c1cccc(C(F)(F)F)c1`, the MIC was 4.2 µM (≈ 1.52 µg/mL) in assay [1], 2.1 µM (≈ 0.759 µg/mL) in assay [2] and 0.5 µM (≈ 0.181 µg/mL) in assay [4]. Moreover, in assay [3], the inhibition came out at 47%.

Consider `CC(=O)Oc1ccccc1C(=O)Nc1ncc([N+](=O)[O-])s1` [NITAZOXANIDE], for which the MIC in assay [1] worked out at 0.8 µM (≈ 0.246 µg/mL); in assay [2], 39.1 µM (≈ 12 µg/mL); in assay [4] it was 13 µM (≈ 3.99 µg/mL). Further, in assay [3], the inhibition amounted to 54%.

Consider `O=C(Nc1sc([N+](=O)[O-])cc1[N+](=O)[O-])c1ccccc1`, for which the MIC in assay [1] amounted to 27.3 µM (≈ 8.01 µg/mL); in assay [2] it was 0.9 µM (≈ 0.264 µg/mL); in assay [4], 1.3 µM (≈ 0.381 µg/mL). In assay [3], this compound returned an inhibition of 55%.

Regarding `O=C(Nc1sc([N+](=O)[O-])cc1[N+](=O)[O-])c1ccoc1`, the MIC in assay [1] was determined as 3.5 µM (≈ 0.991 µg/mL); in assay [2], 0.4 µM (≈ 0.113 µg/mL); in assay [4], 2.6 µM (≈ 0.736 µg/mL). The compound also gave an inhibition in assay [3] of 66%.

As for `O=C(Nc1nc(Cl)c([N+](=O)[O-])s1)c1ccccc1`, the results for the MIC in assay [1], in assay [2] and in assay [4] were greater than 28.2 µM, 7 µM (≈ 1.99 µg/mL) and 8.8 µM (≈ 2.5 µg/mL), respectively. Moreover, the inhibition in assay [3] was found to be 59%.

On to `CCCCCC(=O)Nc1nc(Cl)c([N+](=O)[O-])s1`, for which the MIC in assay [1] amounted to 28.8 µM (≈ 8 µg/mL); in assay [2], 36 µM (≈ 10 µg/mL); in assay [4] it was 0.9 µM (≈ 0.25 µg/mL). Further, in assay [3], the inhibition turned out to be 63%.

Consider `O=C(Nc1nc(Cl)c([N+](=O)[O-])s1)c1cccc(C(F)(F)F)c1`, for which the MIC in assay [1] was greater than 22.7 µM; in assay [2] it was 34.1 µM (≈ 12 µg/mL); in assay [4], 5.7 µM (≈ 2 µg/mL). This compound showed an inhibition in assay [3] of 27%.

`O=C(Nc1ncc([N+](=O)[O-])s1)c1ccoc1`: the MIC was 2.1 µM (≈ 0.502 µg/mL) in assay [1], 12.5 µM (≈ 2.99 µg/mL) in assay [2] and 0.8 µM (≈ 0.191 µg/mL) in assay [4]. In assay [3], this compound gave an inhibition of 56%.

With `O=C(Nc1nc(Cl)c([N+](=O)[O-])s1)c1cccs1`, the MIC in assay [1] was greater than 13.8 µM; in assay [2], 13.8 µM (≈ 4 µg/mL); in assay [4], 6.9 µM (≈ 2 µg/mL). Further, in assay [3], the inhibition was determined as 51%.

Take `O=C(Nc1sc([N+](=O)[O-])cc1[N+](=O)[O-])c1cccs1`: the MIC was found to be 20 µM (≈ 5.99 µg/mL) in assay [1], 1 µM (≈ 0.299 µg/mL) in assay [2] and 2.5 µM (≈ 0.748 µg/mL) in assay [4]. For the same compound, the inhibition in assay [3] is 77%.

Turning to `O=C(Nc1ncc([N+](=O)[O-])s1)c1cccc(C(F)(F)F)c1`, the MIC came out at 0.4 µM (≈ 0.127 µg/mL) in assay [1], 4.7 µM (≈ 1.49 µg/mL) in assay [2] and 3.5 µM (≈ 1.11 µg/mL) in assay [4]. Besides, the inhibition in assay [3] came out at 47%.

Regarding `O=C(Nc1ncc([N+](=O)[O-])s1)c1cccs1` [TENONITROZOLE], the MIC in assay [1] was found to be 1 µM (≈ 0.255 µg/mL); in assay [2], 2.9 µM (≈ 0.74 µg/mL); in assay [4], 2.9 µM (≈ 0.74 µg/mL). This compound also came in with an inhibition in assay [3] of 50%.
